Measured values: US11823799B2, “Method for identifying personalized therapeutic strategies for patients affected with a cancer” (UNIVERSITE DE STRASBOURG, priority 2015, dated 2023)

Columns and labels:
PC model (HID-28) [1] = test: Prostate tumor PDX model HID-28, subcutaneous tumor growth in mice; assay type: in vivo, nude mice; settings: Cediranib 6 mg/kg p.o; for effect on tumor growth / tumor development: Docetaxel 20 mg/kg i.p, Erlotinib 50 mg/kg p.o, vs vehicle
Description: Small tumor fragments are subcutaneously implanted in the flank of athymic nude mice. When tumor size reached 1000 to 2000 mm^3, tumors are surgically excised and small tumor fragments (approximately 40 mm^3) are implanted in the subcutaneous tissue of the interscapular region of 82 nude mice. 36 mice with established growing tumors and tumor volume ranging 60 to 200 mm^3 are included in the study and randomized according to their individual tumor volume into 4 groups of 9 mice. Tumor signature is verified during the amplification and also after engraftment.
The first group is treated with Erlotinib 50 mg/kg (n=9) p.o 1 time per week during 3 weeks, the second is treated with Cediranib 6 mg/kg (n=9) p.o during 3 cycles of 5 days interrupted by 2 days of wash-out, the third group with a mix of the vehicle of Erlotinib and Cediranib (sodium carboxymethylcellulose 0.5%, captisol 15%, DMSO 1% and methylcellulose 0.5%), and the last group is treated with Docetaxel 20 mg/kg (n=9) i.p during 2 cycles of 1 injection every 3 weeks.
Tumor volume is evaluated biweekly by measuring tumor diameters, with a caliper. The formula TV (mm^3)=[length (mm)×width (mm)^2]/2 will be used, where the length and the width are the longest and the shortest diameters of the tumor, respectively.
On the day of termination (28 days after the first treatment), mice are sacrificed by cervical dislocation, tumor are collected from all mice (36 tumor samples totally) and serum from 5 mice per group is collected (20 serum samples totally).

CC model (CR-IC-028M) = test: Colorectal tumor PDX model CR-IC-028M, subcutaneous tumor growth in mice; assay type: in vivo, SWISS Nude mice; settings: Cediranib 6 mg/kg p.o
Description: Small tumor fragments were subcutaneously implanted in the right flank of 9 CB17 SCID mice. When tumor size reached 500-700 mm^3, tumors were surgically excised and small tumor fragments were subcutaneously implanted in the right flank of 52 recipient SWISS Nude mice.
The treatment started when tumors reached a mean volume of 200-300 mm^3. 40 animals out were randomized according to their individual tumor volume into 4 groups each of 10 animals using Vivo Manager® software (Biosystemes, Couternon, France). A statistical test (analysis of variance) was performed to test for homogeneity between groups.
The administration volume for the two models was 10 mL/kg (200 μL/mouse of 20 g) adjusted to the most recent individual body weight of mice.
The tumor volume was calculated by [(a×b^2) 2], where a is the largest tumor diameter and b the perpendicular tumor diameter measured with a caliper every 3 days.
On the day of termination (31 days after the first treatment), mice were sacrificed (40 total samples) by gas anesthesia over-dosage (Isoflurane) followed by cervical dislocation or exsanguination and tumor were collected from all mice.

[2] = tested on: glioblastoma patient HB21 tumor; test: Glioblastoma patient HB21 biopsy cells grafted orthotopically in mouse brain, tumor volume; assay type: in vivo, Immunocompromised mice; settings: for tumor growth inhibition compared to standard of care (Temozolomide): SB-3CT 25 mg/kg p.o, Cediranib 6 mg/kg p.o, 21 days after first treatment
Protocol: Immunocompromised mice were anesthetized with isoflurane 3% (BAXTER), under 0.5 L 02, and received a subcutaneous injection of ketofen 1% 1.5 mL/Kg (MERIAL). The scalp was incised and 100 000 cells of the dissociated glioblastoma biopsy were engrafted with a 2 μL Hamilton syringe (HARVARD […]; HAM-88400) mounted on a stereotaxic set up (HARVARD […]) at the following coordinates from the bregma x: −2 mm; y: +1 mm; z: −3.5 mm at a speed of 0.66 μl/min, 5 minutes after the syringe introduction. After injection, the syringe was kept in place for 5 minutes, and then raised for 1 mm per minute. The scalp was sutured with 7.5 mm Michel stainless steel wound clips (A75, PERFECT). Animals were allowed to recover under a heat lamp several minutes before they were returned to their cage.
After 52 days of tumor development, mice were randomized in 4 groups of treatment. First group was treated with Temozolomide 40 mg/kg (n=9) i.v during 5 consecutive days, second one was treated with SB-3CT 25 mg/kg (n=9) p.o during 10 days interrupted by 2 days of wash-out after 5 days, a third group was treated with Cediranib 6 mg/kg (n=10) p.o during 10 days interrupted by 2 days of wash-out after 5 days, a last one group was treated with Erlotinib 50 mg/kg (n=9) p.o 1 time per week during 3 weeks. The administration volume was 100 μL. On the day of termination (21 days after the first treatment), all mice are sacrificed by cervical dislocation, brains are removed (38 total samples), and included in cryo-embedding media OCT© and stored at −80° C.
Brains were cut in 20 μm sections with a cryostat (LEICA CM 3050S), mounted on blade (Superfrost Super Plus), and stored at −20° C. In order to visualize the tumor, brain sections were thawed in distilled water and Stained with 2% diluted Giemsa's staining (SUBRA; RAL diagnostic 320310-1000) in distilled water at 37° C. for 2 hours. […] Tumor volume was calculated by the addition of every partial volume: [Vtotal=Σpartial volumes=Σd1× (S1+S2)/2+d2×(S2+S3)/2+ . . . +dn× (Sn+Sn+1)]. […]

PC model (HID-28) [3] = settings: cited from earlier work
recurrent glioblastoma = settings: cited from earlier work

COc1cc2c(Oc3ccc4[nH]c(C)cc4c3F)ncnc2cc1OCCCN1CCCC1 [Cediranib]
effect on tumor growth / tumor development (PC model (HID-28) [1]): very significant anti-tumor activity | tumor volume change (PC model (HID-28) [1]; end point of the protocol, p=0.002, T-test, evolution of tumor growth P<0.0001): −78% | effect on tumor growth / tumor development (CC model (CR-IC-028M); Cetuximab 12.5 mg/kg i.p, Trastuzumab 1 mg/kg i.p, vs vehicle): very significant anti-tumor activity | tumor volume change (CC model (CR-IC-028M); end point of the protocol, p=0.01, T-test, evolution of tumor growth P<0.0001): −50% | tumor growth inhibition compared to standard of care (Temozolomide) [2]: identical to the one obtained with the standard of care

CC(=O)O[C@@]12CO[C@@H]1C[C@H](O)[C@@]1(C)C(=O)[C@H](O)C3=C(C)[C@@H](OC(=O)[C@H](O)[C@@H](NC(=O)OC(C)(C)C)c4ccccc4)C[C@@](O)([C@@H](OC(=O)c4ccccc4)[C@H]21)C3(C)C [Docetaxel]
response of the model in previous results (PC model (HID-28) [3]): responsive | effect on tumor growth / tumor development (PC model (HID-28) [1]): tumor growth was inhibited

C#Cc1cccc(Nc2ncnc3cc(OCCOC)c(OCCOC)cc23)c1 [Erlotinib]
effect on tumor growth / tumor development (PC model (HID-28) [1]): not efficient in blocking tumor development | efficacy when compared to all other drugs ([2]; Erlotinib 50 mg/kg p.o 1 time per week, 3 weeks, not significantly different): −60%

O=S(=O)(CC1CS1)c1ccc(Oc2ccccc2)cc1 (stereo not drawn) [SB-3CT]
tumor growth inhibition compared to standard of care (Temozolomide) [2]: identical to the one obtained with the standard of care

Bevacizumab
PFS and OS advantage in phase III trials (recurrent glioblastoma; AVAglio and RTOG phase III trials (Soffietti 2014)): significant advantage for Bevacizumab treated patients in term of PFS but not of OS | patients who seem to benefit from treatment (recurrent glioblastoma; overall): less than 50%
